Values of other authors as cited in patent US6992047B2, “Method of microencapsulating an agricultural active having a high melting point and uses for such materials” (Monsanto Technology LLC, priority 2001, dated 2006).

Details: at 20° C.

For C=CCNC(=O)c1c([Si](C)(C)C)sc(C)c1C [silthiopham, 4,5-dimethyl-N-(2-propenyl)-2-(trimethylsilyl)-3-thiophenecarboxamide], the water solubility is listed as 35 ppm.
